Experimental data published in patent publication EP0428423A2, “Aryloxy alkyl benzenes, processes for their preparation and pharmaceutical compositions containing them” (LIPHA S.A., priority 1989, dated 1991).

How the values were obtained:
COTRANSPORT Na-K = target: T1, COTRANSPORT Na-K (Homo sapiens, UniProt P55011); assay: Na-K cotransport of human erythrocytes; format: cell-based, ERYTHROCYTES HUMAINS
T1 construct: systèmes de transport du sodium et du potassium des érythrocytes humains; endogenous in cells; host or cells: human erythrocytes
T1 sequence (P55011 1-1212): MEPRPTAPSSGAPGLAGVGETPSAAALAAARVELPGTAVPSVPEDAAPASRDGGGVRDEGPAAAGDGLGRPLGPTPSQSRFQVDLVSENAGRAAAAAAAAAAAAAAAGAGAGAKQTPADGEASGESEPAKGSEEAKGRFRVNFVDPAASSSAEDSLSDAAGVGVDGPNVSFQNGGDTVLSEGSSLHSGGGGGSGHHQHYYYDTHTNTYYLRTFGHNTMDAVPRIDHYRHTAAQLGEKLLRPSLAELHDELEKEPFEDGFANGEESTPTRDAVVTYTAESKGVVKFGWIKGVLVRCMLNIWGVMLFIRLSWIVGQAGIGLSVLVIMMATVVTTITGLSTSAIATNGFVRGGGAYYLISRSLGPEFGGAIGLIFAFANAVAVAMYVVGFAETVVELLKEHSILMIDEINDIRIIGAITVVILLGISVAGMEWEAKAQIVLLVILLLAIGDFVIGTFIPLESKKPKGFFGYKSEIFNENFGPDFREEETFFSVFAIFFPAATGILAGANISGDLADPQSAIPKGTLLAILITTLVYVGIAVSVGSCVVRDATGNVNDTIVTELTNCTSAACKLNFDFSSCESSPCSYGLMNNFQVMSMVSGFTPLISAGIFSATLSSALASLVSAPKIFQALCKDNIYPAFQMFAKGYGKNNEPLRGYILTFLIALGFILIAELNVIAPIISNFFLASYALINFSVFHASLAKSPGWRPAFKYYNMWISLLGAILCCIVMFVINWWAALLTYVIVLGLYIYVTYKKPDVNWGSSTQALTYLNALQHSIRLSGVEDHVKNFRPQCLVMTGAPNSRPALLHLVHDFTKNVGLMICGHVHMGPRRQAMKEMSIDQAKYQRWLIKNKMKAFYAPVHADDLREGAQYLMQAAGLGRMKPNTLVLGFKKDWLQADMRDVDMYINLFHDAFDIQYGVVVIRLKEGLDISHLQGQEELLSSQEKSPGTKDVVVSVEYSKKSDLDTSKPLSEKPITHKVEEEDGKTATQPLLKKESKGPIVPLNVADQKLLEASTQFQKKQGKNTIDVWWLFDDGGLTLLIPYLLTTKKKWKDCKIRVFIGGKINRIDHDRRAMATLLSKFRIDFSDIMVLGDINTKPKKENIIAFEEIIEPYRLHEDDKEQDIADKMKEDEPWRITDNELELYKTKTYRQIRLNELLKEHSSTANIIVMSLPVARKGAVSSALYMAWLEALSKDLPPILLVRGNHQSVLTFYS
Source text: Cet effet a été étudié selon la méthodologie décrite par G. GARAY et coll. dans Naunyn-Schmidberg's Arch. Pharmakol. […] Pharm.

ECHANGEUR D'ANIONS = target: T2, ECHANGEUR D'ANIONS (Homo sapiens, UniProt P02730); assay: Anion exchanger of human erythrocytes; format: cell-based, ERYTHROCYTES HUMAINS; conditions: read-out: EFFET SUR L'ECHANGEUR D'ANIONS IC 50
T2 construct: systèmes de transport du sodium et du potassium des érythrocytes humains; endogenous in cells; host or cells: human erythrocytes
T2 sequence (P02730 1-911): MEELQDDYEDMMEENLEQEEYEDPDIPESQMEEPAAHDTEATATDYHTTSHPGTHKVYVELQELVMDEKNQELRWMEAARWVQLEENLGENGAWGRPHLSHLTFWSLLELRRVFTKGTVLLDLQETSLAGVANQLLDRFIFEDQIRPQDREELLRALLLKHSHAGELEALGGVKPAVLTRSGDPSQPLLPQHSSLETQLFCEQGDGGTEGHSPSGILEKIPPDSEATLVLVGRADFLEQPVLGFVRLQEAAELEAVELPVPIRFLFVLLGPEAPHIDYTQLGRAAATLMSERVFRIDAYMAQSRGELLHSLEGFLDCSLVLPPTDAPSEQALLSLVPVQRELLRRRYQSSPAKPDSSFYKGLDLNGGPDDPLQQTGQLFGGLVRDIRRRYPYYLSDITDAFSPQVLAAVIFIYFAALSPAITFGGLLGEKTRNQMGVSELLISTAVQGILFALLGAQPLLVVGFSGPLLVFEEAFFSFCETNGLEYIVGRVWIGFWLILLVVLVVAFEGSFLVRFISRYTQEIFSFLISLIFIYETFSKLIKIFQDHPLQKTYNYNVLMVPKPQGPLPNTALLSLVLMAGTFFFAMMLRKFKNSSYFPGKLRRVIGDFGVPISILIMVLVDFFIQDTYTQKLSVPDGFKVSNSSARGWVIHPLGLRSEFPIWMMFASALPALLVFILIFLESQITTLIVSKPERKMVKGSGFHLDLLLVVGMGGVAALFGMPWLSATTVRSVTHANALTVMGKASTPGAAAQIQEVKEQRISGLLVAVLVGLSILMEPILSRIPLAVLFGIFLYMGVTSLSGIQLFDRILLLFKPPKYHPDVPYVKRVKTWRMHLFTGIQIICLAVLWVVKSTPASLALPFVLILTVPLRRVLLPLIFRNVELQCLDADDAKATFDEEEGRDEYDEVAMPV
Source text: Cet effet a été étudié selon la méthodologie décrite par G. GARAY et coll. dans Naunyn-Schmidberg's Arch. Pharmakol. 334 (1986) 202-209 et dans Bioch. Pharm. 33 (1984) 2013-2020.

[1] = test system: plasmas riches en plaquettes provenant de sang de rat; assay: Platelet anti-aggregation in vitro, ADP-induced (Born aggregometer); format: cell-based; conditions: in vitro, aggregating agent ADP, rat platelet-rich plasma, 37°, M not defined in the text, mM printed only in the TICLOPIDINE line; for IC50: read-out: M à 50
Experimental: Les études ont été réalisées sur des plasmas riches en plaquettes provenant de sang de rat, l'agrégation étant induite par addition d'acide Adénosine diphosphorique. Les courbes néphélométriques d'agrégation sont obtenues en utilisant un agrégomètre de type BORN, le plasma étant placé en incubation à 37° avec agitation continue de 1100 t/mn (cf. BORN G.V.R et CROSS J. - J. Physiol. 168 (1962) 178.

Row | Compound | IC50 [1] [mM] | other results
1 | CCCCNc1cc(C(=O)O)cc(S(N)(=O)=O)c1Oc1ccccc1 [BUMETANIDE, reference compound] |  | IC50 (COTRANSPORT Na-K): 0.66 µM; IC50 (ECHANGEUR D'ANIONS): 300 µM
2 | Oc1ccccc1CCOc1ccccc1 [Ex 12] | 1.6 | 
3 | Cc1ccc(O)c(CCOc2ccc(F)cc2)c1 [Ex 54] |  | M à 50 [1]: inactif
4 | CC(=O)Oc1c(CCOc2ccc(F)cc2)cccc1C(C)C [Ex 81] | 1 | 
5 | CCCc1cccc(CCOc2ccc(F)cc2)c1O [Ex 86] | 1.55 | 
6 | Oc1ccc(Oc2ccccc2)cc1CCOc1ccc(F)cc1 [Ex 100] | 1.1 | 

Now from value to compound, other results behind:

Row | IC50 [1] [mM] | Compound | other results
7 | 0.75 | CC(C)(C)c1ccc(O)c(CCOc2ccc(F)cc2)c1 [Ex 52] | 
8 | 0.6 | Oc1ccccc1CCOc1cccc2ccccc12 [Ex 58] | 
9 | 0.5 | C=CCOc1ccc(CCOc2ccccc2)c(O)c1 [Ex 64] | 
10 | 0.7 | Cc1ccc(CCOc2ccc(F)cc2)c(O)c1C [Ex 78] | 
11 | 0.55 | CC(C)c1ccc(O)c(CCOc2ccc(F)cc2)c1 [Ex 82] | 
12 | 0.75 | Oc1ccc(OCCc2ccccc2O)cc1 [Ex 84] | 
13 | 0.5 | CCOC(=O)c1ccc(OCCc2ccccc2O)cc1 [Ex 90] | 
14 | 0.7 | Oc1ccc(O)c(CCOc2ccc(F)cc2)c1 [Ex 102] | 
15 | 0.6 | O=C(Oc1ccccc1CCOc1ccc(F)cc1)c1cccnc1 [Ex 129] | 
